# According to publication PMC3839579 (Food chemistry, 2012):
# How the values were obtained:
# [1] = type: in vitro ADME, human; conditions: preliminary analysis
# [2] = Stability of cyanidin chloride, PCA and PGA in saliva; type: in vitro ADME, human
# [3] = Stability of cyanidin chloride in acidified water; type: physicochemical
# [4] = type: in vitro ADME, human; conditions: individual glucosides in RdGrp extract, chlorhexidine rinse
compound,measurement,setting,value
"OC[C@H]1O[C@@H](Oc2cc3c(O)cc(O)cc3[o+]c2-c2ccc(O)c(O)c2)[C@H](O)[C@@H](O)[C@@H]1O [Cy-3-glu, Cyanidin-3-O-glucoside]",Chalcone glucosides of Cy as share of the original amount incubated in saliva ex vivo,[1],≤ 30%
"Oc1cc(O)c2cc(O)c(-c3ccc(O)c(O)c3)[o+]c2c1 [CyCl, cyanidin chloride]",Cyanidin aglycone degraded upon addition to intact saliva,"[2]; human, 0 min, 25 nmol/L",> 90%
same,PCA as share of the degraded CyCl in saliva,"[2]; human, 0 min, 25 nmol/mL",15.3%
same,PCA as share of the degraded CyCl in saliva,"[2]; human, 60 min, 25 nmol/mL",9.6%
same,CyCl recovered immediately after addition to acidified water,[3]; 0 min,Greater than 86%
same,CyCl lost after incubation in acidified water,[3]; 60 min,greater than 88%
"OC[C@H]1O[C@@H](Oc2cc3c(O)cc(O)cc3[o+]c2-c2cc(O)c(O)c(O)c2)[C@H](O)[C@@H](O)[C@@H]1O [Dp, Delphinidin-3-O-glucoside]",Decrease of degradation in saliva after antibacterial treatment,[4],30%
"COc1cc(-c2[o+]c3cc(O)cc(O)c3cc2O[C@@H]2O[C@H](CO)[C@@H](O)[C@H](O)[C@H]2O)cc(OC)c1O [Mv, Malvidin-3-O-glucoside]",Decrease of degradation in saliva after antibacterial treatment,[4],50%
"O=C(O)c1ccc(O)c(O)c1 [PCA, protocatechuic acid]","recovery at 60 min, 25 nmol/mL",[2]; human,90%
"O=Cc1c(O)cc(O)cc1O [PGA, phloroglucinol aldehyde]",Recovery after incubation in intact saliva,"[2]; 25 nmol/mL, 37 °C, 60 min",43%
"COc1cc(-c2[o+]c3cc(O)cc(O)c3cc2O[C@@H]2O[C@H](CO)[C@@H](O)[C@H](O)[C@H]2O)ccc1O [Pn, Peonidin-3-O-glucoside]",Decrease of degradation in saliva after antibacterial treatment,[4],50%
"COc1cc(-c2[o+]c3cc(O)cc(O)c3cc2O[C@@H]2O[C@H](CO)[C@@H](O)[C@H](O)[C@H]2O)cc(O)c1O [Pt-3-glu, Petunidin-3-O-glucoside]",Decrease of degradation in saliva after antibacterial treatment,[4],10%
